Assay results reported in patent US20230137849A1, “USE OF A COMPOUND OF THE DIURETICS CLASS FOR TREATING CANCER” (AZELEAD, priority 2017, published 2023).
Counter-ions that a name gives are not always drawn. Like-named read-outs stand apart in the source and are kept apart here.

Assays:
[1] = test system: hematopoietic stem cells CD41:GFP accumulated in the CHT; assay type: in vivo; settings: for invasion of CHT by CD41:GFP cells / number of cells having colonized CHT, in words: thiazide compounds test, 10 μM or 25 μM, FIG. 9; for reduction of the number of HSCs accumulated in CHT: 24 h
Excerpt: A method for determining whether a molecule is capable of treating cancer in the pre-metastatic state has been described in international application WO 2011/007259. This method consists in isolating molecules capable of inhibiting the emergence of hematopoietic stem cells from the floor of the aorta without cell division, but by endothelial-to-hematopoietic transition. This emergence involves the loss of cell polarity of emerging cells, the loss of cellular junctions with these neighboring cells and the acquisition of migratory properties. This model is used because it mimics each stage of the epithelial-mesenchymal transition, the first stage of cancer metastasis. The endothelial-to-hematopoietic transition takes place in a region of the embryo called Aorta-Gonad-Mesonephros (AGM).
(§1) The colonization of hematopoietic tissues by hematopoietic stem cells mimics the appearance and/or progression of a metastatic cancerous tumor since it involves intravasation, extravasation, or the migration of HSCs following a gradient of SDF-1. The first colonized tissue is caudal hematopoietic tissue (CHT).
In order to evaluate the inhibition of the endothelial-to-hematopoietic transition, transgenic CD41:GFP (green fluorescent protein) embryos are used. HSCs express GFP under the control of the CD41 promoter, which allows them to be monitored in vivo under a fluorescence microscope. The read-out is the number of hematopoietic stem cells CD41:GFP accumulated in the AGM (mimicking the initiation of the metastatic process) and/or in the CHT of the zebrafish embryo (mimicking the progression of the metastatic process). The accumulation of CD41:GFP cells in CHT implies that each cell has made an endothelial-to-hematopoietic transition, intravasation, extravasation at the CHT level, has settled in a stromal niche and has proliferated.
The Tg transgenic zebrafish line (CD41:GFP) is maintained in accordance with the protocols described by the Ethical Committee for Animal Experimentation. The fish are kept at a temperature of 28° C. and their development stage is determined as before. The molecules are tested on zebrafish embryos at the 25 hpf stage. The embryos are decorticated and transferred to a 96-well plate (1 embryo/well) containing the test compounds in a final volume of 100 μl of the embryonic growth medium (60 μg salt for 1 ml H2O). […] The treated embryos are incubated for 24 hours in an incubator at 28° C.
The embryos are imaged with a plate reader after being anesthetized with 0.16% tricaine (ethyl-3-aminobenzoate). A quantification of the number of fluorescent cells (CD41:GFP) accumulated in the CHT is carried out.
Althiazide was tested on the zebrafish embryo according to the method previously described in the international application WO 2011/007259. This method consists in isolating molecules capable of inhibiting the emergence of hematopoietic stem cells from the floor of the aorta without cell division, but by endothelial-to-hematopoietic transition. This emergence involves the loss of cell polarity of emerging cells, the loss of cellular junctions with these neighboring cells and the acquisition of migratory properties. This model is used, in the context of the invention, because it mimics each of the stages of the epithelial-to-mesenchymal transition, the first stage of the cancerous metastasis. The endothelial-to-hematopoietic transition takes place in a region of the embryo called Aorto-Gonado-Mesonephros (AGM).
as §1, with “metastatic” for “metastatic cancerous”, “SDF1.” for “SDF-1.”, “(CHT). This physiological process is considered, in the context of the invention, as representative of the appearance and/or progression of a metastatic tumor. […]” for “(CHT).”

[2] = Stability test of enantiomers: degradation followed by UHPLC reverse phase purity; assay type: physicochemical
Protocol: The analysis of the reverse phase purity of the products to be tested was carried out by an ultra-high pressure liquid chromatography (UHPLC) reverse phase chromatography technique on a Waters UPLC2 liquid chromatograph, marketed by Waters. The mobile phase of the separation varies during the method according to the protocol of Table 1.
(§2) The stability tests of the enantiomers were performed by comparing the racemization and the degradation of the stored samples either at room temperature without protection against light, or under controlled temperature at 5° C. and protected from light.
(§3) The stored products are analyzed regularly (T=0, 1 h, 2 h, 3 h, 6 h, 24 h) to follow the evolution of the racemization of enantiomers.
(§4) After separation by SFC acetonitrile version 2, 1.5 mg of EV-VZWOO 1-070-005 and 2.4 mg of EV-VZWOO 1-070-006 are removed for stability testing.
(§5) Sample EV-VZWOO 1-070-005 is stored at a temperature of 5° C. under light protection conditions. Sample EV-VZWOO 1-070-006 is stored at room temperature on the bench without protection against light.

[3] = Stability test of enantiomers: racemization followed by SFC chiral purity analysis; assay type: physicochemical
Protocol: The analysis of the chiral purity of the products to be tested was carried out by a supercritical fluid separation (SFC) technique on a Berger prep chromatograph, marketed by Thar Instruments. The mobile phase of the separation consists of a mixture of methanol added. 0.01% acetic acid and CO2 in a 20/80 ratio. The stationary phase chosen is a Chiralpak IC […] column, 250 mm by 20 mm, marketed by sigma aldrich. The injection rate is 50 ml per minute, at 40° C. under a pressure of 100 bar. The product to be analyzed is dissolved in methanol supplemented with 0.01% acetic acid, with a concentration of 1 mg/ml. 10 μl of this product is injected. The detector is a UV detector with a wavelength greater than 275 nm.
as §2, §3, §4, §5

[4] = test system: MDA-MB-231 cells; assay: Cytotoxicity potentiation test: MTT cell viability of MDA-MB-231 cells, doxorubicin +/- althiazide; assay type: cell-based, human; settings: Homo sapiens, MDA-MB-231, 24 h, 24 h, 1% O2
Protocol: The cell cultures are carried out on human breast cancer epithelial cell lines MDA-MB-231 (HTB-26™), resulting from metastases present in a pleural effusion of a patient with a mammary adenocarcinoma. This line is used as a triple negative cancer cell model (no expression of ER-type nuclear estrogen receptors, nuclear progesterone receptors or overexpression of the oncogene encoding HER2 protein (Human Epidermal Growth factor Receptor-2).
The cell viability is determined via the IC50 index, measured by the MTT technique (2-(4,5-dimethyl-2-thiazolyl)-3,5-diphenyl-2H-tetrazolium bromide) (Mosmann, 1983). This colorimetric test is based on the reduction of yellow tetrazolium salts into insoluble purple formazan crystals in aqueous solution. The spectrophotometric measurement of the absorbance at 570 nm is directly proportional to the number of viable cells
The cells were seeded in 96-well plates at a density of 25,000 cells per well. After 24 h of culture at 37° C., 5% CO2 and 1% O2, the medium was renewed and supplemented with increasing doses of doxorubicin+/−althiazide. Cells were incubated for 24 h at 37° C., 5% CO2 and 1% O2. The MDA-MB-231 cells were washed and then incubated for 1 hour at 37° C. with 100 μl of a 0.5 mg/ml MTT solution prepared in culture medium. The formazan crystals were dissolved in […] and the absorbance measured at 570 nm using the Tecan Sunrise spectrophotometer. The IC50 was determined using the Graphpad Prism 5.0 software. The treatments were carried out in triplicate and the manipulation was carried out 5 times.
The tests are carried out in cell culture in 96-well plates, on the cell line MDA-MB-231. The MDA-MB-231 cells are seeded in 96-well plates at a density of 10,000 cells and incubated 24 h at 37° C., 5% CO2 and 1% O2. The medium is then renewed and added with increasing concentrations of doxorubicin+/−100 μM althiazide. The cells are incubated for an additional 24 hours at 37° C., 5% CO2 and 1% O2. Treatments were made in triplicas and the experiment was repeated 5 times.
A cell viability test is then performed according to the method described in Materials and methods.
Results are normalized to the control condition (FIG. 12)

[5] = 0 h, stored at 5° C. protected from light
[6] = 24 h, stored at 5° C. protected from light
[7] = 1 h, stored at 5° C. protected from light
[8] = 2 h, stored at 5° C. protected from light
[9] = 3 h, stored at 5° C. protected from light
[10] = 6 h, stored at 5° C. protected from light
[11] = 0 h, stored at room temperature without protection against light
[12] = 24 h, stored at room temperature without protection against light
[13] = 1 h, stored at room temperature without protection against light
[14] = 2 h, stored at room temperature without protection against light
[15] = 3 h, stored at room temperature without protection against light
[16] = 6 h, stored at room temperature without protection against light
[17] = 10 μM (FIG. 3; b188 prints 10 μl), vs reference embryos treated with DMSO

SMILES: C=CCSC[C@@H]1Nc2cc(Cl)c(S(N)(=O)=O)cc2S(=O)(=O)N1 [AZ(A)]
- invasion of CHT by CD41:GFP cells / number of cells having colonized CHT, in words [1]: further reduce
- UHPLC Pureté en phase inverse [2, 5]: 99.9%
- UHPLC Pureté en phase inverse [2, 6]: 94.9%
- SFC AZ(A) (%) [3, 5]: 100%
- SFC AZ(B) (%) [3, 5]: 0%
- SFC AZ(A) (%) [3, 7]: 100%
- SFC AZ(B) (%) [3, 7]: 0%
- SFC AZ(A) (%) [3, 8]: 100%
- SFC AZ(B) (%) [3, 8]: 0%
- SFC AZ(A) (%) [3, 9]: 100%
- SFC AZ(B) (%) [3, 9]: 0%
- SFC AZ(A) (%) [3, 10]: 100%
- SFC AZ(B) (%) [3, 10]: 0%
- SFC AZ(A) (%) [3, 6]: 100%
- SFC AZ(B) (%) [3, 6]: 0%

SMILES: C=CCSC[C@H]1Nc2cc(Cl)c(S(N)(=O)=O)cc2S(=O)(=O)N1 [AZ(B)]
- invasion of CHT by CD41:GFP cells / number of cells having colonized CHT, in words [1]: further reduce
- UHPLC Pureté en phase inverse [2, 11]: 100%
- UHPLC Pureté en phase inverse [2, 12]: 90.5%
- SFC AZ(A) (%) [3, 11]: 0.6%
- SFC AZ(B) (%) [3, 11]: 99.4%
- SFC AZ(A) (%) [3, 13]: 1.2%
- SFC AZ(B) (%) [3, 13]: 98.8%
- SFC AZ(A) (%) [3, 14]: 1.2%
- SFC AZ(B) (%) [3, 14]: 98.8%
- SFC AZ(A) (%) [3, 15]: 1.7%
- SFC AZ(B) (%) [3, 15]: 98.3%
- SFC AZ(A) (%) [3, 16]: 3%
- SFC AZ(B) (%) [3, 16]: 97%
- SFC AZ(A) (%) [3, 12]: 9.7%
- SFC AZ(B) (%) [3, 12]: 90.3%

SMILES: NS(=O)(=O)c1cc(C2(O)NC(=O)c3ccccc32)ccc1Cl (stereo not shown) [Chlortalidone, reference compound]
- reduction of the number of HSCs accumulated in CHT [1, 17]: do not cause a decrease

SMILES: NNc1nncc2ccccc12 [Hydralazine-hydrochloride, reference compound]
- reduction of the number of HSCs accumulated in CHT [1, 17]: do not cause a decrease

SMILES: NS(=O)(=O)c1cc2c(cc1Cl)NCNS2(=O)=O [Hydrochlorothiazide, reference compound]
- reduction of the number of HSCs accumulated in CHT ([1]; 10 µM): 20%

SMILES: Cc1ccccc1N1C(=O)c2cc(S(N)(=O)=O)c(Cl)cc2NC1C (stereo not shown) [Metolazone, reference compound]
- reduction of the number of HSCs accumulated in CHT [1, 17]: do not cause a decrease

SMILES: C[N+]1(CCCCC[N+]2(C)CCCC2)CCCC1.O=C([O-])C(O)C(O)C(=O)O.O=C([O-])C(O)C(O)C(=O)O [Pentolinium-bitartrate, reference compound]
- reduction of the number of HSCs accumulated in CHT [1, 17]: do not cause a decrease

SMILES: COc1cccc2c1C(=O)c1c(O)c3c(c(O)c1C2=O)C[C@@](O)(C(=O)CO)C[C@@H]3O[C@H]1C[C@H](N)[C@H](O)[C@H](C)O1 [doxorubicin, reference compound]
- IC50 ([4]; doxorubicin + 100 μM althiazide): 3.32 µM
- IC50 ([4]; doxorubicin alone): 6.02 µM
